Test results taken from paper PMC6017552, “Interaction between Saikosaponin D, Paeoniflorin, and Human Serum Albumin” (Molecules : A Journal of Synthetic Chemistry and Natural …, 2018).

Target: T1, human serum albumin (HSA) (Homo sapiens, UniProt P02768)
T1 construct: gene ALB; mature full-length, 585 residues, 66500 Da, single chain
Experiment: intrinsic fluorescence quenching, double-log plot
Format: binding
Details: 20 °C, 0.01 M PBS pH 7.4, 1 μM HSA, 0-18 nM ligand, λex 280 nm
From the text: intrinsic fluorescence quenching, double-log plot on human serum albumin (HSA)

T1 sequence (P02768 25-609): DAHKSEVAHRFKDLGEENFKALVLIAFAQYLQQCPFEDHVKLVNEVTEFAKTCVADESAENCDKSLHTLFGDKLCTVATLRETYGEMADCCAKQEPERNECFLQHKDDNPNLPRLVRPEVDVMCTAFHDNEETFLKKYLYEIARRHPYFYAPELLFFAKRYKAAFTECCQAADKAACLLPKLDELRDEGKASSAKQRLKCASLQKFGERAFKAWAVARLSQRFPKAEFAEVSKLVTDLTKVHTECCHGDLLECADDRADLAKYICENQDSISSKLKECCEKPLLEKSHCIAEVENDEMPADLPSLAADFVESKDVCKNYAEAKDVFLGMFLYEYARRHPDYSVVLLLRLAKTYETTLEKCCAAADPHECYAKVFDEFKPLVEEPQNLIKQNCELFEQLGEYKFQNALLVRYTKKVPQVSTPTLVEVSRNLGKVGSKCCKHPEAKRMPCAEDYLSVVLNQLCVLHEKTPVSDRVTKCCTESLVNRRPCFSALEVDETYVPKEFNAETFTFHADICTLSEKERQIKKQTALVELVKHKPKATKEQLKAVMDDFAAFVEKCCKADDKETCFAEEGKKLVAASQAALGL

- Ka (mol.L^-1) ± SD: 7.39 × 10^4 ± 0.174 mol·L^-1
Structure (SMILES): C[C@@]12C[C@@]3(O)O[C@@H](O1)[C@]1(COC(=O)c4ccccc4)[C@H]3C[C@@]12O[C@@H]1O[C@H](CO)[C@@H](O)[C@H](O)[C@H]1O [paeoniflorin]
